Results reported in patent publication US20150246938A1, “NOVEL OLEFIN DERIVATIVE” (SHIONOGI & CO., LTD., priority 2011, published 2015).

molecular target: T1, recombinant human ACC2 (Homo sapiens, UniProt O00763); test: Measurement of inhibitory activity on human ACC2 (MALDI-TOF MS, acetyl CoA to malonyl CoA conversion); type: biochemical; details: not given
T1 construct: a cDNA encoding human ACC2 (27-2458) was cloned from human kidney cDNA library (Clontech); His-tag (N); made in house; host or cells: Sf-9 insect cells (Bac-to-Bac baculovirus)
T1 sequence (O00763 27-2458): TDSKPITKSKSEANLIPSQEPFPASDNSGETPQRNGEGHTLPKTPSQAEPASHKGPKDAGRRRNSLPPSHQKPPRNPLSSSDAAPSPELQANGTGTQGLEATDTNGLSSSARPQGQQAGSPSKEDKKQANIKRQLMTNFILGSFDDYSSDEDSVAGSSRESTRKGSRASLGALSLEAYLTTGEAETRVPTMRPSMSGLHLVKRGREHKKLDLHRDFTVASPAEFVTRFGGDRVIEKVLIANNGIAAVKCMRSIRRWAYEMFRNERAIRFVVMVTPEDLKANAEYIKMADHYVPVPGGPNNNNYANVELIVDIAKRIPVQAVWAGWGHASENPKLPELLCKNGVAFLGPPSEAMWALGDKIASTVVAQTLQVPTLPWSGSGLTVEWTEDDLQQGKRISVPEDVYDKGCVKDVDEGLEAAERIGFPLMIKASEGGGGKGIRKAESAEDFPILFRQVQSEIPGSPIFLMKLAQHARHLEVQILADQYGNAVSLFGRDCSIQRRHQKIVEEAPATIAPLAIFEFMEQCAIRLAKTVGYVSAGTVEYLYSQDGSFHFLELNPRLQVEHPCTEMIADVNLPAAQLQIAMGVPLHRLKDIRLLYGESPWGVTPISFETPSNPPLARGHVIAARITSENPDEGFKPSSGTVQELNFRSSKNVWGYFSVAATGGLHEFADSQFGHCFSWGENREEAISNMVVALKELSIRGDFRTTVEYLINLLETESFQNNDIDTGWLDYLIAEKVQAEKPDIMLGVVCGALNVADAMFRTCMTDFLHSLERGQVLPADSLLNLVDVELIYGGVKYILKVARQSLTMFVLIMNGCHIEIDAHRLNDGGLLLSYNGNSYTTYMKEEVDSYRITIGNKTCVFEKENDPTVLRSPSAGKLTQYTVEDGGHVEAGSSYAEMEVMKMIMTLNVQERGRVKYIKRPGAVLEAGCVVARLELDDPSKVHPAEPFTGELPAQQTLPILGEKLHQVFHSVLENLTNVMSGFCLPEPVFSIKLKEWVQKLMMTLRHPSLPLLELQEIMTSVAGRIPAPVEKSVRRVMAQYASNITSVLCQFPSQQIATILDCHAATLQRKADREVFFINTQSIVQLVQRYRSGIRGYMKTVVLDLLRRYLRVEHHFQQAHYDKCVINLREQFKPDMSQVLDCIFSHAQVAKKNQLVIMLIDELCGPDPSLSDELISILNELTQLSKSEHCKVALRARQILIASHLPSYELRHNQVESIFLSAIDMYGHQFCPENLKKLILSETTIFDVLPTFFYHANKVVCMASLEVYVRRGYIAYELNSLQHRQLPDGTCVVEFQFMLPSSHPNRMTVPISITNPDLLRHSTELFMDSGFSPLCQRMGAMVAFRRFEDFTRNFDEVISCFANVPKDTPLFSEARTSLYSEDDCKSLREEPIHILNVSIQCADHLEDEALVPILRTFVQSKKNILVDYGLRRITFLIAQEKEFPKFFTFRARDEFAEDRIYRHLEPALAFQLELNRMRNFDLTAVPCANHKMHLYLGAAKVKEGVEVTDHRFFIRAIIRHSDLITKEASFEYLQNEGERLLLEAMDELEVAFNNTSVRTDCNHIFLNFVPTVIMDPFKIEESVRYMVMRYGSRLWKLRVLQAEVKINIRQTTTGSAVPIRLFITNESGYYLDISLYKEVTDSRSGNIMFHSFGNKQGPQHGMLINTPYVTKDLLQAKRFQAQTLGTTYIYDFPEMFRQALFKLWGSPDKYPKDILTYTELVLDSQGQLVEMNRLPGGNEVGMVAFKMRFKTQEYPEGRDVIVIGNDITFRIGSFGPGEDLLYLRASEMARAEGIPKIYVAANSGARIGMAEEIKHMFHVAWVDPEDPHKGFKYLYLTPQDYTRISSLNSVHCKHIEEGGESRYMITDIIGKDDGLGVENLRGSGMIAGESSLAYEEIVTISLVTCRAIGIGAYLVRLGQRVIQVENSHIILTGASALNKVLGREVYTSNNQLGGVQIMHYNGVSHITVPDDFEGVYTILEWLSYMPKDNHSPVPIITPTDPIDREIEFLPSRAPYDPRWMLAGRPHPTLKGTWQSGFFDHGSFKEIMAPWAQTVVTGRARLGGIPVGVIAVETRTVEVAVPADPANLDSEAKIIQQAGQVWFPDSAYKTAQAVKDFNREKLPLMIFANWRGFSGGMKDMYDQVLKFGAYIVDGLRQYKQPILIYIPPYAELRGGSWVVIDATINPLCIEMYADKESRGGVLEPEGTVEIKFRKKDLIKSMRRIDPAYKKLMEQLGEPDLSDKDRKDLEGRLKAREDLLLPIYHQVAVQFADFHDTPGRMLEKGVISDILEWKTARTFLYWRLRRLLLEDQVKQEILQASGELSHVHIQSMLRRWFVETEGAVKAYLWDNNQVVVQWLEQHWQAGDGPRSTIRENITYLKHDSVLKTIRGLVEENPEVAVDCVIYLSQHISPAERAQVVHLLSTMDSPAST

| IC50 | Structure (SMILES) |
| --- | --- |
| 0.015 µM | CC(=O)N[C@@H](C)/C=C/c1ccc(Oc2ccc3c(c2)CCC3)nc1 [Compound I-397] |
| 4.2 µM | CC(=O)N[C@@H](C)/C=C/c1cc(Oc2ccc(OCC3CC3)cc2Cl)nn1C [Compound I-395] |
| 2 µM | CCCn1cc(Oc2ccc(/C=C/[C@H](C)NC(C)=O)cn2)cn1 [Compound I-388] |

same assay, conditions: inhibition activity on human ACC2, Table 79; read-out: IC50

| IC50 | Structure (SMILES) |
| --- | --- |
| 0.053 µM | C[C@@H](/C=C/c1cnc(Oc2ccc(OCC3CC3)cc2Cl)s1)NC(=O)CC#N [Compound I-73] |
| 0.048 µM | C[C@@H](/C=C/c1cnc(Oc2ccc(OCC3CC3)cc2Cl)s1)NC(=O)Cc1cccnc1 [Compound I-77] |
| 0.071 µM | CCOc1ccc(COc2ccc(/C=C/[C@H](C)NC(C)=O)cn2)cc1 [Compound I-15] |
| 0.31 µM | CC(=O)N[C@@H](C)/C=C/c1ccc(Oc2ccc(OCC3CC3)cc2Cl)nn1 [Compound I-56] |
| 1.2 µM | COc1ccc(Cl)c(Oc2ccc(/C=C/[C@H](C)NC(C)=O)cn2)c1 [Compound I-27] |

same assay, conditions: inhibition activity on human ACC2, Table 80; read-out: IC50

| IC50 | Structure (SMILES) |
| --- | --- |
| 1.8 µM | CCOc1ccc(C(F)(F)c2ccc(/C=C/[C@H](C)NC(N)=O)cn2)c(Cl)c1 [Compound I-188] |
| 2.6 µM | C[C@@H](/C=C/c1cnn(Cc2ccc(OCC3CC3)cc2Cl)c1)NC(=O)c1ccon1 [Compound I-174] |
| 0.0063 µM | C[C@@H](/C=C/c1cnc(Oc2ccc(OCC3CC3)cc2Cl)s1)NC(=O)c1ccnc(C(=O)NCCO)c1 [Compound I-206] |
| 0.58 µM | C[C@@H](/C=C/c1cnc(Oc2ccc(OCC3CC3)cc2Cl)s1)NC(=O)c1cccc(C#N)c1 [Compound I-155] |

same assay, conditions: inhibition activity on human ACC2, Table 82; read-out: IC50

| IC50 | Structure (SMILES) |
| --- | --- |
| 0.17 µM | CCCc1ccc(Oc2ncc(/C=C/[C@H](C)NC(C)=O)cn2)cc1Cl [Compound I-324] |
| 0.042 µM | CC(=O)N[C@@H](C)/C=C/c1ccc(Oc2ccc(C3=CCCC3)cc2Cl)nc1 [Compound I-351] |
| 0.01 µM | CCOc1ccc(Oc2ccc(/C=C(\F)C(C)NC(C)=O)cn2)c(Cl)c1 (centres unmarked) [Compound I-365] |
| 0.027 µM | CC(=O)N[C@@H](C)/C=C/c1ccc(Oc2ccc(Cc3ccccc3)cc2Cl)nc1 [Compound I-358] |
| 1.1 µM | CC(=O)N[C@@H](C)/C=C/c1ccc(Oc2ccc(C(C)O)cc2Cl)nc1 (some centres unmarked) [Compound I-329] |
| 0.12 µM | CC(=O)N[C@@H](C)/C=C/c1ccc(Oc2ccc(-c3ccccc3C)cc2Cl)nc1 [Compound I-342] |
| 0.96 µM | CCCc1cc(C)c(Oc2ccc(/C=C/[C@H](C)NC(C)=O)cn2)cn1 [Compound I-323] |
| 0.033 µM | CC(=O)N[C@@H](C)/C=C/c1ccc(Oc2ccc(Cl)c(Cl)c2)nc1 [Compound I-338] |

same assay, conditions: inhibition activity on human ACC2, Table 84; read-out: IC50

| IC50 | Structure (SMILES) |
| --- | --- |
| 0.059 µM | CC(=O)N[C@@H](C)/C=C/c1ccc(Oc2ccc3c(c2)OC(C)(C)C3)nc1 [Compound I-519] |
| 0.043 µM | CC(=O)N[C@@H](C)/C=C/c1ccc(Oc2cc3c(cc2Cl)OC(C)(C)C3)nc1 [Compound I-507] |
| 0.096 µM | CC(=O)N[C@@H](C)/C=C/c1ccc(Oc2cnc(N3CCCCC3)nc2)nc1 [Compound I-499] |
| 0.11 µM | CC(=O)N[C@@H](C)/C=C/c1ccc(Oc2ccc3c(C)nsc3c2)nc1 [Compound I-486] |
| 0.058 µM | CCC(CC)c1ccc(Oc2ccc(/C=C/[C@H](C)NC(C)=O)cn2)c(Cl)c1 [Compound I-436] |
| 0.73 µM | CC(=O)N[C@@H](C)/C=C/c1ccc(Oc2ccc(Oc3cncs3)cc2Cl)nc1 [Compound I-453] |

same assay, conditions: inhibition activity on human ACC2, untitled table (Table 81); read-out: IC50

| IC50 | Structure (SMILES) |
| --- | --- |
| 1.6 µM | CC(=O)N[C@@H](C)/C=C/c1cnn(Cc2cc(F)c(OCC3CC3)cc2F)c1 [Compound I-292] |
| 0.96 µM | CCNC(=O)c1cc(C(=O)N[C@@H](C)/C=C/c2cnn(Cc3ccc(F)c(Cl)c3)c2)ccn1 [Compound I-314] |
| 0.026 µM | CC(=O)N[C@@H](C)/C=C/c1ccc(Oc2ccc(C3CC3)cc2Cl)nc1 [Compound I-266] |
| 0.15 µM | CC(=O)N[C@@H](C)/C=C/c1ccc(Oc2ccc3c(c2)OCC(=O)N3CC2CC2)nc1 [Compound I-260] |
| 0.4 µM | COc1cc(Oc2ccc(/C=C/[C@H](C)NC(C)=O)cn2)ccc1F [Compound I-259] |
| 0.048 µM | CCOc1ccc(Oc2cnc(/C=C/[C@H](C)NC(C)=O)cn2)c(Cl)c1 [Compound I-286] |
